The results in this text go back to patent publication US12729458B2, “Discovery and evolution of biologically active metabolites” (The Regents of the University of Colorado, a Body Corporate, priority 2020, dated 2026).

Data set [1] deals with TCPTP1-281. The experiment in a line: pNPP hydrolysis by TC-PTP lacking the α7-equivalent region. In kind it is biochemical, H. sapiens. Conditions: for change in PTP1B/TC-PTP selectivity on removal of the α7 helix (or equivalent) from both enzymes: PTP1B1-281 and TCPTP1-281 vs full constructs; for pKi: TCPTP1-281. The procedure:
(§1) Enzyme kinetics. To examine terpenoid-mediated inhibition, we measured PTP-catalyzed hydrolysis of p-nitrophenyl phosphate (pNPP) or 4-methylumbelliferyl phosphate (4-MUP, used when KM for pNPP was large) in the presence of various concentrations of terpenoids. Each reaction included PTP (0.05 μM PTP1B/TCPTP or 0.1 μM SHP1/SHP2 in 50 mM HEPES, 0.5 mM TCEP, 50 μg/ml BSA), pNPP (0.33, 0.67, 2, 5, 10, and 15 mM) or 4-MUP (0.13, 0.27, 0.8, 2.27, 2.93, 4.53, 7.07, and 8 mM), inhibitor (with concentrations listed in the figures), buffer (50 mM HEPES pH=7.3, 50 μg/ml BSA), and DMSO at 10% v/v. We monitored the formation of p-nitrophenol by measuring absorbance at 405 nm every 10 seconds for 5 minutes on a SpectraMax M2 plate reader and the formation of 4-methylumbelliferyl by measuring fluorescence at 450 nm (370 nm ex, 435 nm cutoff, medium gain).
(§2) We used a custom MATLAB script to process all raw kinetic data. This script removed all concentration values that fell outside of either (i) the range of our standard curve (absorbance/fluorescence vs. μM; FIG. 39) or (ii) the initial rate regime (>10% of the pNPP or 4-MUP concentration used in the assay). When this step reduced kinetic dataset to fewer than ten points, we re-measured those datasets to collect at least ten. We fit final datasets, in turn, with a linear regression model (using Matlab's backslash operator).
(§3) We evaluated kinetic models in three steps: (i) We fit initial-rate measurements collected in the absence and presence of inhibitors to Michaelis-Menten and inhibition models, respectively (here, we used the nlinfit and fminsearch functions from MATLAB; TABLE 12). (ii) We used an F-test to compare the mixed model to the single-parameter model with the least sum squared error (here, we used the fedf function from MATLAB to assign p-values), and we accepted the mixed model when p<0.05. (iii) We used the Akaike's Information Criterion (AIC) to compare the best-fit single parameter model to each alternative single parameter model, and we accepted the “best-fit” model when the difference in AIC (Δi) exceed 5 for all comparisons.^78 We note: For AD, AB, and (+) 1-(10),4-cadinadiene this criterion was not met; both noncompetitive and uncompetitive models, however, yielded indistinguishable ICso's.
(§4) We used the MATLAB function “nlparci” to determine the confidence intervals of kinetic parameters, and we propagated those intervals to estimate corresponding confidence intervals for each IC50.

Data set [2] deals with T1, SHP1 (Homo sapiens, UniProt P29350).
T1 construct: made in house; host or cells: E. coli BL21 (DE3)
Description: SHP1-catalyzed hydrolysis of 4-MUP in the presence of terpenoids. In kind it is biochemical, H. sapiens. The procedure: as §1
We used a custom MATLAB script to process all raw kinetic data. This script removed all concentration values that fell outside of either (i) the range of our standard curve (absorbance/fluorescence vs. μM; FIG. 39) or (ii) the initial rate regime (>10% of the pNPP or 4-MUP concentration used in the assay). When this step reduced kinetic dataset to fewer than ten points, we re-measured those datasets to collect at least ten. We fit final datasets, in turn, with a linear regression model (using Matlab's backslash operator). […]

Data set [3] concerns the target T2, PTP1B (Homo sapiens, UniProt P18031).
T2 sequence (P18031 1-321 limits assumed): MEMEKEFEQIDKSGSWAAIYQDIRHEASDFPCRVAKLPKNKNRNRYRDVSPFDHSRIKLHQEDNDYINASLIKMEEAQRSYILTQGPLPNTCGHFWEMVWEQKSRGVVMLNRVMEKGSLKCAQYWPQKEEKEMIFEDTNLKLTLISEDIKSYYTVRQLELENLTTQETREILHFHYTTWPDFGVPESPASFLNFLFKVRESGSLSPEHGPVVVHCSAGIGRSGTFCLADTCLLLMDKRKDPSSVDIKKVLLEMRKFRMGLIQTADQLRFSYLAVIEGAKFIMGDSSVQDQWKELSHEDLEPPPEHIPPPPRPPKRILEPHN
Description: Ligand efficiency (TABLE 15). Conditions: for pIC50: PTP1B, the patent's own terpenoid inhibitors. Details: species or system H. sapiens.

Data set [4] has as its target T3, PTP1B (Homo sapiens, UniProt P18031).
T3 construct: In this study, we used a well-studied truncation variant (i.e., PTP1B1-321); His-tag; made in house; host or cells: E. coli BL21 (DE3), pET21b
T3 sequence (P18031 1-321): T2 sequence (P18031 1-321 limits assumed)
The experiment in a line: X-ray crystallography of PTP1B soaked with ligand. The class given is binding, H. sapiens. The procedure:
X-ray crystallography. We prepared crystals of PTP1B by using hanging drop vapor diffusion. In brief, we added 2 μL of PTP1B (~600 μM PTP1B, 50 mM HEPES, pH 7.3) to 6 μL of crystallization solution (100 mM HEPES, 200 mM magnesium acetate, and 14% polyethylene glycol 8000, pH 7.5) and incubated the resulting droplets over crystallization solution for one week at 4° C. (EasyXtal CrystalSupport, Qiagen). We soaked crystals with ligand by transferring them to droplets formed with 6 μL of crystallization solution and 1 μL of ligand solution (10 mM in DMSO), which we incubated for 2-5 days at 4° C. We prepared all […] for freezing by soaking them in cryoprotectant formed from a 70/30 (v/v) mixture of buffer (100 mM HEPES, 200 mM magnesium acetate, and 25% polyethylene glycol 8000, pH 7.5) and glycerol.
We collected X-ray diffraction data through the Collaborative Crystallography Program at Lawrence Berkeley National Lab (ALS ENABLE, beamline 8.2.1, 100 K, 1.00003 Å). We performed integration, scaling, and merging of X-ray diffraction data using the xia2 software package^79, and we carried out molecular replacement and structure refinement with the PHENIX graphical interface,^80 supplemented with manual model adjustment in COOT^81 and one round of PDB-REDO^82 (the latter, only for the PTP1B-AD complex).

The target of data set [5] is T4, PTP1B1-281 (PTP1B282 in FIG. 12) (Homo sapiens, UniProt P18031).
T4 construct: made in house; host or cells: E. coli BL21 (DE3)
T4 sequence (P18031 1-281): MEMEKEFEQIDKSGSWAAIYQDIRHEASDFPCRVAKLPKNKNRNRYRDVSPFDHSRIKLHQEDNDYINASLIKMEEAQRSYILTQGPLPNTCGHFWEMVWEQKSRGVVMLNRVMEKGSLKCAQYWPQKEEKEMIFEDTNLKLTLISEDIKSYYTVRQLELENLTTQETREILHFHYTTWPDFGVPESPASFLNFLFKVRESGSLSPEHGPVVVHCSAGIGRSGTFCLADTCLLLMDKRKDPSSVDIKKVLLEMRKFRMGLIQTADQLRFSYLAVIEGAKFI
Description: pNPP hydrolysis by PTP1B lacking the α7 helix. The class given is biochemical, H. sapiens. As to conditions: for pKi: PTP1B1-281. How it is done: as §1, §2, §3, §4

The mark [6] stands for this setting: competitive model of inhibition, read-out: Fit par. Ki, competitive model.
The mark [7] stands for this setting: mixed model, uncompetitive constant, read-out: Fit par. Ki,u, mixed model.
The mark [8] stands for this setting: noncompetitive model of inhibition, read-out: Fit par. Ki, noncompetitive model.
Where [9] appears, read: uncompetitive model of inhibition, read-out: Fit par. Ki, uncompetitive model.
Where [10] appears, read: mixed model, competitive constant, read-out: Fit par. Ki,c, mixed model.

pIC50, pKi: −log10 of the molar value. Entries after “also recorded” stand apart in the source; their conditions may differ. Like-named read-outs stand apart in the source and are kept apart here.

T1 sequence (P29350 whole entry): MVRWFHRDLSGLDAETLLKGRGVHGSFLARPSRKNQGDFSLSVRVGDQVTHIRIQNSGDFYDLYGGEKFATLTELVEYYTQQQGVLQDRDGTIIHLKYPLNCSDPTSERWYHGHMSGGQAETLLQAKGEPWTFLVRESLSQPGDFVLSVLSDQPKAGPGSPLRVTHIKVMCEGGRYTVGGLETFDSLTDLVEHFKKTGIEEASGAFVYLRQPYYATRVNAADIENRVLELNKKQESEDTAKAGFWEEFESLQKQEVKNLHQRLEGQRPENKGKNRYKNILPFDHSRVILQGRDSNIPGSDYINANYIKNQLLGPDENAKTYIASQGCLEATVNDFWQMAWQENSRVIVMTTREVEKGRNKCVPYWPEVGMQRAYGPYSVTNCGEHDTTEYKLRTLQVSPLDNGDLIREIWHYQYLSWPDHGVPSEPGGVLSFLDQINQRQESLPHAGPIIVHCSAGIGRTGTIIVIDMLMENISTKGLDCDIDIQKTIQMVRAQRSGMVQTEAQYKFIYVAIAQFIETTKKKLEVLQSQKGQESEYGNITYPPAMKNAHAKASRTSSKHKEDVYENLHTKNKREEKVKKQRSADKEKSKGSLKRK

For orientation: pKi means the Ki on a negative log10 scale, so that one unit is a factor of ten. One may read the pIC50 as the IC50 on a negative log10 scale, so that one unit is a factor of ten. Turning to `C=C(C)[C@@H]1CC[C@@H](C)[C@@H]2CCC(C)=C[C@@H]21` [amorphadiene], the “change in PTP1B/TC-PTP selectivity on removal of the α7 helix (or equivalent) from both enzymes” value in data set [1] (listed as AD) was “four-fold; also recorded: reduces the selectivity”. In addition, the pKi in data set [1] (setting [6]) is 4.06; in data set [1] (setting [7]) it was 3.45; in data set [1] (setting [8]), 3.40; in data set [1] (setting [9]), 3.45; in data set [5] (setting [6]), 4.42; in data set [5] (setting [10]) it was 3.80. Also, the pKi is 3.57 in data set [5] (setting [7]), 3.61 in data set [5] (setting [8]) and 3.68 in data set [5] (setting [9]). In data set [2], the “inhibition of SHP1” value is listed as “too weak to measure”. Also, the “ligand efficiency” value in data set [3] ((−2.303RT)/HAC * log(IC50)) was 0.39 kcal/mol-atom; in data set [3] (TABLE 15) it was “high”. In data set [3], this compound had a pIC50 of 4.30. The “binding site on PTP1B (crystal structure)” value in data set [4] (crystal soaked with ligand, pdb entry 6W30) was “binds to the same allosteric site targeted by benzbromarone derivatives”. Further, in data set [5] (pNPP, less potent on PTP1B282), the “potency against PTP1B282 (no α7 helix) relative to PTP1B321” value was “~ four-fold”.

In the case of `CC(C)=CCC=C(C)C1CC=C(C)CC1` (stereo not drawn) [α-bisabolene], the “change in PTP1B/TC-PTP selectivity on removal of the α7 helix (or equivalent) from both enzymes” value in data set [1] (listed as AB) is “insensitive and not”. Besides, the pKi is 4.86 in data set [1] (setting [6]); 2.44 in data set [1] (setting [10]); 4.16 in data set [1] (setting [7]); 4.12 in data set [1] (setting [8]); 4.16 in data set [1] (setting [9]); 5.19 in data set [5] (setting [6]). Further, the pKi in data set [5] (setting [10]) is 4.41; in data set [5] (setting [7]), 4.32; in data set [5] (setting [8]) it was 4.33; in data set [5] (setting [9]), 4.40. Further, the “inhibition of SHP1” value in data set [2] was “low potency”. The “ligand efficiency” value in data set [3] ((−2.303RT)/HAC * log(IC50)) is reported as 0.44 kcal/mol-atom; in data set [3] (TABLE 15) it was “high”. The compound also showed a negative logarithm of the IC50 (pIC50) in data set [3] of 4.89. Further, the “solubility (crystal soaking experiments)” value in data set [4] is on record as “poor solubility”.
